Laboratory results reported in patent publication US20240116985A1, “STAPLED PEPTIDES AND METHODS THEREOF” (priority 2020, published 2024).
In brackets after ≈: the same amount, converted by molar mass. Where two headings read alike, the source gives them in different places.

Assays:
Solubility in PBS = type: physicochemical
Outline: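 Steps: ultracentrifuge the peptide PBS solution, inject the supernatant on HPLC, inject a 50 μM peptide DMSO solution as reference, then calculate solubility as area ratio (PBS/DMSO) × 50 uM.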

[1] = target: T1, full-length beta-Catenin (Uniprot ID P35222) (Homo sapiens, UniProt P35222); assay: Fluorescence polarization IC50 (beta-catenin / 5FAM-TCF4 10-53 competition); type: binding
T1 construct: 10 nM full-length beta-Catenin (Uniprot ID P35222)
T1 sequence (P35222 1-781): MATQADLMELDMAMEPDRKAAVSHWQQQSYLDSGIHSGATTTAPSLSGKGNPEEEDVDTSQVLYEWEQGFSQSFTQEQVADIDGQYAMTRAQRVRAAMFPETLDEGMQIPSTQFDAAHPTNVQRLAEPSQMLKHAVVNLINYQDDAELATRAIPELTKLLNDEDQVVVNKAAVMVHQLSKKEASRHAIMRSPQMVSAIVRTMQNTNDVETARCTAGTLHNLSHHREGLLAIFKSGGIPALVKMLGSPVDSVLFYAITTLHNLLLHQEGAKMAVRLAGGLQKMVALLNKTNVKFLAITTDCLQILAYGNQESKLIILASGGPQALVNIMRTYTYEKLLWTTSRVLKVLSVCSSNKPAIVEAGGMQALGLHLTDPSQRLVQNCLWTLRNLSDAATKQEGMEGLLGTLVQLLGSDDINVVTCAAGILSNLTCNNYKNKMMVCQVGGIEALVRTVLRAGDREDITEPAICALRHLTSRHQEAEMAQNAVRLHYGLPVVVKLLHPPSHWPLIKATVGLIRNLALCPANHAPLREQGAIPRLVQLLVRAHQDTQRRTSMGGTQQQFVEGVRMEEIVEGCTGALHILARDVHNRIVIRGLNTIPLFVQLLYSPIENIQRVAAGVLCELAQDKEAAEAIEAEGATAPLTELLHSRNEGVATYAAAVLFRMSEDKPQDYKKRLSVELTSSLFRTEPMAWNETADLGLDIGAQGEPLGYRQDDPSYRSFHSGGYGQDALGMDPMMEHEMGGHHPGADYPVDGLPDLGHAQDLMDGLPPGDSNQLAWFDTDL

CHI Log D procedure = type: physicochemical
[2] = Table E2-1, read-out: beta-Catenin FP IC50
[3] = fluorescence polarization, beta-catenin, read-out: FP EC50

| Solubility (Solubility in PBS) [µM] | IC50 [1, 2] [nM] | IC50 [1, 3] [nM] | CHI Log D (CHI Log D procedure; pH 7.4) | Solubility (Solubility in PBS; Solubility (uM)) [µM] | chromatographic logD (CHI Log D procedure; pH 7.4, CHI Log D) | SMILES | IC50 ([1]; beta-Catenin FP IC50 (nM), Table E2-1) [nM] | chromatographic logD (CHI Log D procedure; pH 7.4) |
| --- | --- | --- | --- | --- | --- | --- | --- | --- |
| 44 (≈ 79.8 µg/mL) | 42 | 42 | 1.977 |  |  | CC(=O)N1CCC[C@]12CC=CCCCC1(CCCC=CCCCCCC[C@@](C)(C(=O)N[C@@H](Cc3ccccc3)C(=O)N[C@@H](Cc3csc4ccccc34)C(=O)N[C@@H](CCC(N)=O)C(N)=O)NC(=O)[C@H](CC(N)=O)NC(=O)[C@H](Cc3ccccc3)NC(=O)[C@H](C)NC(=O)[C@H](C)NC(=O)[C@H](CC(=O)O)NC(=O)[C@H](CC(=O)O)NC1=O)NC(=O)[C@H](C)NC(=O)[C@H](CC(=O)O)NC2=O (stereo partly drawn) [I-344, Ac-PL3-Asp-Ala-B5-Asp-Asp-Ala-Ala-Phe-Asn-S8-Phe-BztA-Gln-NH2] |  |  |
|  | 134 |  |  | 49 (≈ 89.6 µg/mL) | 2.14 | COC[C@@H]1NC(=O)[C@H](CC(=O)O)NC(=O)[C@]2(CC=CCCCC3(CCCC=CCCCCCC[C@@](C)(C(=O)N[C@@H](Cc4ccccc4)C(=O)N[C@@H](Cc4csc5ccccc45)C(=O)N[C@@H](CCC(N)=O)C(N)=O)NC(=O)[C@H](C(C)C)NC(=O)[C@H](Cc4ccccc4)NC(=O)[C@H](C)NC(=O)[C@H](C)NC(=O)[C@H](CC(=O)O)NC(=O)[C@H](CC(=O)O)NC3=O)NC1=O)CCCN2C(C)=O (stereo partly drawn) [I-345, Ac-PL3-Asp-S(OMe)-B5-Asp-Asp-Ala-Ala-Phe-Val-S8-Phe-BztA-Gln-NH2] |  |  |
| 44 (≈ 81.6 µg/mL) | 180 | 180 | 1.943 |  |  | CC(=O)N1CCC[C@]12CC=CCCCC1(CCCC=CCCCCCC[C@@](C)(C(=O)N[C@@H](Cc3ccccc3)C(=O)N[C@@H](Cc3csc4ccccc34)C(=O)N[C@@H](CCC(N)=O)C(N)=O)NC(=O)[C@H](C(C)C)NC(=O)[C@H](Cc3ccccc3)NC(=O)[C@H](C)NC(=O)[C@H](C)NC(=O)[C@H](CC(=O)O)NC(=O)[C@H](CC(=O)O)NC1=O)NC(=O)[C@H](CCC(N)=O)NC(=O)[C@H](CC(=O)O)NC2=O (stereo partly drawn) [I-346, Ac-PL3-Asp-Gln-B5-Asp-Asp-Ala-Ala-Phe-Val-S8-Phe-BztA-Gln-NH2] |  |  |
| 50 (≈ 92.8 µg/mL) | 121 | 121 | 1.956 |  |  | CC(=O)N1CCC[C@]12CC=CCCCC1(CCCC=CCCCCCC[C@@](C)(C(=O)N[C@@H](Cc3ccccc3)C(=O)N[C@@H](Cc3csc4ccccc34)C(=O)N[C@@H](CCC(N)=O)C(N)=O)NC(=O)[C@H](C(C)C)NC(=O)[C@H](Cc3ccccc3)NC(=O)[C@H](C)NC(=O)[C@H](C)NC(=O)[C@H](CC(=O)O)NC(=O)[C@H](CC(=O)O)NC1=O)NC(=O)[C@H](CCC(N)=O)NC(=O)[C@H](CC(=O)O)NC2=O (stereo partly drawn) [I-347, Ac-PL3-Asp-Gln-B5-Asp-Asp-Ala-Ala-Phe-Val-S8-Phe-BztA-Gln-NH2] |  |  |
|  | 5000 |  |  | 30 (≈ 54.7 µg/mL) | 2.06 | CC(=O)N1CCC[C@]12CC=CCCCC1(CCCC=CCCCCCC[C@@](C)(C(=O)N[C@@H](Cc3ccc(C#N)cc3)C(=O)N[C@@H](Cc3csc4ccccc34)C(=O)N[C@@H](CCC(N)=O)C(N)=O)NC(=O)[C@H](C(C)C)NC(=O)[C@H](Cc3ccccc3)NC(=O)[C@H](C)NC(=O)[C@H](C)NC(=O)[C@H](CC(=O)O)NC(=O)[C@H](CC(=O)O)NC1=O)NC(=O)[C@H](C)NC(=O)[C@H](CC(=O)O)NC2=O (stereo partly drawn) [I-359, Ac-PL3-Asp-Ala-B5-Asp-Asp-Ala-Ala-Phe-Val-S8-4CNF-BztA-Gln-NH2] |  |  |
| 44 (≈ 80.8 µg/mL) | 146 | 146 | 2.017 |  |  | CC(=O)N1CCC[C@]12CC=CCCCC1(CCCC=CCCCCCC[C@@](C)(C(=O)N[C@@H](Cc3ccccc3)C(=O)N[C@@H](Cc3csc4ccccc34)C(=O)N[C@@H](Cc3c[nH]cn3)C(N)=O)NC(=O)[C@H](CCC(N)=O)NC(=O)[C@H](Cc3ccccc3)NC(=O)[C@H](C)NC(=O)[C@H](C)NC(=O)[C@H](CC(=O)O)NC(=O)[C@H](CC(=O)O)NC1=O)NC(=O)[C@H](C)NC(=O)[C@H](CC(=O)O)NC2=O (stereo partly drawn) [I-360, Ac-PL3-Asp-Ala-B5-Asp-Asp-Ala-Ala-Phe-Gln-S8-Phe-BztA-His-NH2] |  |  |
| 46 (≈ 84.5 µg/mL) | 42 | 42 | 2.058 |  |  | CC(=O)N1CCC[C@]12CC=CCCCC1(CCCC=CCCCCCC[C@@](C)(C(=O)N[C@@H](Cc3ccccc3)C(=O)N[C@@H](Cc3csc4ccccc34)C(=O)N[C@@H](Cc3c[nH]cn3)C(N)=O)NC(=O)[C@H](CCC(N)=O)NC(=O)[C@H](Cc3ccccc3)NC(=O)[C@H](C)NC(=O)[C@H](C)NC(=O)[C@H](CC(=O)O)NC(=O)[C@H](CC(=O)O)NC1=O)NC(=O)[C@H](C)NC(=O)[C@H](CC(=O)O)NC2=O (stereo partly drawn) [I-361, Ac-PL3-Asp-Ala-B5-Asp-Asp-Ala-Ala-Phe-Gln-S8-Phe-BztA-His-NH2] |  |  |
|  | 3660 |  |  | 47 (≈ 82.7 µg/mL) | 1.44 | CC(=O)N1CCC[C@]12CC=CCCCC1(CCCC=CCCCCCC[C@@](C)(C(=O)N[C@@H](Cc3c[nH]cn3)C(=O)N[C@@H](Cc3csc4ccccc34)C(=O)N[C@@H](CCC(N)=O)C(N)=O)NC(=O)[C@H](C)NC(=O)[C@H](Cc3ccccc3)NC(=O)[C@H](C)NC(=O)[C@H](C)NC(=O)[C@H](CC(=O)O)NC(=O)[C@H](CC(=O)O)NC1=O)NC(=O)[C@H](C)NC(=O)[C@H](CC(=O)O)NC2=O (stereo partly drawn) [I-362, Ac-PL3-Asp-Ala-B5-Asp-Asp-Ala-Ala-Phe-Ala-S8-His-BztA-Gln-NH2] |  |  |
| 48 (≈ 85.6 µg/mL) | 2720 | 2720 | 2.038 |  |  | CC(=O)N1CCC[C@]12CC=CCCCC1(CCCC=CCCCCCC[C@@](C)(C(=O)N[C@@H](Cc3ccccc3)C(=O)N[C@@H](Cc3csc4ccccc34)C(=O)N[C@@H](CCC(N)=O)C(N)=O)NC(=O)[C@H](C)NC(=O)[C@H](Cc3ccccc3C)NC(=O)[C@H](C)NC(=O)[C@H](C)NC(=O)[C@H](CC(=O)O)NC(=O)[C@H](CC(=O)O)NC1=O)NC(=O)[C@H](C)NC(=O)[C@H](CC(=O)O)NC2=O (stereo partly drawn) [I-365, Ac-PL3-Asp-Ala-B5-Asp-Asp-Ala-Ala-2MeF-Ala-S8-Phe-BztA-Gln-NH2] |  |  |
|  | 2310 |  |  | 40 (≈ 71.4 µg/mL) | 1.66 | CC(=O)N1CCC[C@]12CC=CCCCC1(CCCC=CCCCCCC[C@@](C)(C(=O)N[C@@H](Cc3ccc(C)cc3)C(=O)N[C@@H](Cc3csc4ccccc34)C(=O)N[C@@H](CCC(N)=O)C(N)=O)NC(=O)[C@H](C)NC(=O)[C@H](Cc3ccccc3)NC(=O)[C@H](C)NC(=O)[C@H](C)NC(=O)[C@H](CC(=O)O)NC(=O)[C@H](CC(=O)O)NC1=O)NC(=O)[C@H](C)NC(=O)[C@H](CC(=O)O)NC2=O (stereo partly drawn) [I-369, Ac-PL3-Asp-Ala-B5-Asp-Asp-Ala-Ala-Phe-Ala-S8-4MeF-BztA-Gln-NH2] |  |  |
|  | 1560 |  |  | 47 (≈ 85.5 µg/mL) | 2.18 | CC(=O)N1CCC[C@]12CC=CCCCC1(CCCC=CCCCCCC[C@@](C)(C(=O)N[C@@H](Cc3ccccc3)C(=O)N[C@@H](Cc3csc4ccccc34)C(=O)N[C@@H](CCC(N)=O)C(N)=O)NC(=O)[C@H](C)NC(=O)[C@H](Cc3ccc4ccccc4c3)NC(=O)[C@H](C)NC(=O)[C@H](C)NC(=O)[C@H](CC(=O)O)NC(=O)[C@H](CC(=O)O)NC1=O)NC(=O)[C@H](C)NC(=O)[C@H](CC(=O)O)NC2=O (stereo partly drawn) [I-370, Ac-PL3-Asp-Ala-B5-Asp-Asp-Ala-Ala-2NapA-Ala-S8-Phe-BztA-Gln-NH2] |  |  |
|  | 1390 |  |  | 48 (≈ 85.8 µg/mL) | 2.14 | CC(=O)N1CCC[C@]12CC=CCCCC1(CCCC=CCCCCCC[C@@](C)(C(=O)N[C@@H](Cc3cccc(F)c3)C(=O)N[C@@H](Cc3csc4ccccc34)C(=O)N[C@@H](CCC(N)=O)C(N)=O)NC(=O)[C@H](C)NC(=O)[C@H](Cc3ccccc3)NC(=O)[C@H](C)NC(=O)[C@H](C)NC(=O)[C@H](CC(=O)O)NC(=O)[C@H](CC(=O)O)NC1=O)NC(=O)[C@H](C)NC(=O)[C@H](CC(=O)O)NC2=O (stereo partly drawn) [I-371, Ac-PL3-Asp-Ala-B5-Asp-Asp-Ala-Ala-Phe-Ala-S8-3FF-BztA-Gln-NH2] |  |  |

| SMILES | Solubility (Solubility in PBS) [µM] | IC50 [1, 2] [nM] | IC50 [1, 3] [nM] | CHI Log D (CHI Log D procedure; pH 7.4) | Solubility (Solubility in PBS; Solubility (uM)) [µM] | chromatographic logD (CHI Log D procedure; pH 7.4, CHI Log D) | IC50 ([1]; beta-Catenin FP IC50 (nM), Table E2-1) [nM] | chromatographic logD (CHI Log D procedure; pH 7.4) |
| --- | --- | --- | --- | --- | --- | --- | --- | --- |
| CC(=O)N1CCC[C@]12CC=CCCCC1(CCCC=CCCCCCC[C@@](C)(C(=O)N[C@@H](Cc3ccccc3)C(=O)N[C@@H](Cc3c[nH]c4ccccc34)C(=O)N[C@@H](CCC(N)=O)C(N)=O)NC(=O)[C@H](C(C)C)NC(=O)[C@H](Cc3ccccc3)NC(=O)[C@H](C)NC(=O)[C@H](C)NC(=O)[C@H](C)NC(=O)[C@H](CC(=O)O)NC1=O)NC(=O)[C@H](C)NC(=O)[C@H](CC(=O)O)NC2=O (stereo partly drawn) [I-352, Ac-PL3-Asp-Ala-B5-Asp-Ala-Ala-Ala-Phe-Val-S8-Phe-Trp-Gln-NH2] | 10 (≈ 17.4 µg/mL) |  |  |  |  |  | 5000 | 2.51 |
